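Protocol summary: plate cells (96-well), add compound at 5 concentrations, incubate 48 h, interpolate endpoints linearly. The concentration for 50% growth inhibition is given as GI50. The concentration for full growth arrest is given as TGI.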
What was measured:
Test in all cases: NCI tumour cell line growth inhibition, 48 h
ACHN renal = test system: ACHN renal
MOLT-4 leukemia = test system: MOLT-4 leukemia
RPMI-8226 leukemia = test system: RPMI-8226 leukemia
SF-539 CNS = test system: SF-539 CNS
SK-MEL-5 melanoma = test system: SK-MEL-5 melanoma
SNB-75 CNS = test system: SNB-75 CNS
A549 NSCLC = test system: A549 NSCLC
HCT-116 colon = test system: HCT-116 colon
IGROV1 ovarian = test system: IGROV1 ovarian
OVCAR-8 ovarian = test system: OVCAR-8 ovarian
P388/ADR leukemia = test system: P388/ADR leukemia
RXF 393 renal = test system: RXF 393 renal
SF-268 CNS = test system: SF-268 CNS
SK-MEL-2 melanoma = test system: SK-MEL-2 melanoma

Compound | GI50 (ACHN renal) | TGI (ACHN renal) | GI50 (MOLT-4 leukemia) | TGI (MOLT-4 leukemia) | GI50 (RPMI-8226 leukemia) | TGI (RPMI-8226 leukemia) | GI50 (SF-539 CNS) | TGI (SF-539 CNS) | GI50 (SK-MEL-5 melanoma) | TGI (SK-MEL-5 melanoma) | GI50 (SNB-75 CNS) | TGI (SNB-75 CNS) | TGI (A549 NSCLC) | TGI (HCT-116 colon) | TGI (IGROV1 ovarian) | TGI (OVCAR-8 ovarian) | TGI (P388/ADR leukemia) | TGI (RXF 393 renal) | TGI (SF-268 CNS) | TGI (SK-MEL-2 melanoma)
COc1cc(/C=C2\CN(S(=O)(=O)c3ccc(C)cc3)C/C(=C\c3cc(CN4CCCCC4)c(O)c(OC)c3)C2=O)cc(CN2CCCCC2)c1O | 1.44 µM | 2.74 µM | 0.918 µM | 5.04 µM | 2.03 µM | 5.45 µM | 1.74 µM | 3.31 µM | 1.81 µM | 3.47 µM | 1.64 µM | 3.41 µM | – | – | – | – | – | – | – | –
NC(Cc1c[nH]c2ccccc12)C(=O)O (stereo not given) | – | – | – | > 300 µM | – | > 300 µM | – | > 300 µM | – | > 300 µM | – | > 300 µM | > 300 µM | > 300 µM | > 300 µM | > 248 µM | > 300 µM | > 300 µM | > 300 µM | > 300 µM

Source: PubChem BioAssay (NCI)
